According to patent publication US6495693B2, “N-(aryl/heteroaryl) amino acid derivatives, pharmaceutical compositions comprising same, and methods for inhibiting β-amyloid peptide release and/or its synthesis by use of such compounds” (Athena Neurosciences, Inc., priority 1996, dated 2002):

Row | SMILES | melting point
1 | CC(Nc1ccc(Cl)c(Cl)c1)C(=O)NC(=O)[C@@H](N)Cc1ccccc1 (mixture of isomers) [Example 36, N-[N-(3,4dichlorophenyl)-D,L-alanyl]-L-phenylalanine amide] | 177 to 179 °C
2 | CCCC[C@H](NC(=O)[C@H](C)Nc1nc2ccccc2s1)C(=O)OC [Example 48, N-[N-(benzothiazol-2-yl)-L-alanyl]-(S)-2-aminohexanoic acid methyl ester] | 99 to 120 °C
3 | CC(Nc1ccc(Cl)c(Cl)c1)C(=O)NC(=O)[C@@H](N)C(C)C (mixture of isomers) [Example 6, N-[N-(3,4dichlorophenyl)-D,L-alanyl]-L-valine amide] | 156 to 158 °C
4 | CCCC[C@H](NC(=O)C(C)Nc1cc(F)cc(F)c1)C(=O)OC (mixture of isomers) [Example 50, N-[N-(3,5-difluorophenyl)-D,L-alanyl]-(S)-2-aminohexanoic acid methyl ester] | 93 to 95 °C
5 | COC(=O)[C@H](C)NC(=O)C(C)Nc1cc(F)cc(F)c1 (mixture of isomers) [Example 49, N-[N-(3,5-difluorophenyl)-D,L-alanyl]-L-alanine methyl ester] | 93 to 95 °C
6 | CC(Nc1ccc(Cl)c(Cl)c1)C(=O)N[C@H](C(=O)N(C)C)C(C)C (mixture of isomers) [Example 8, N-[N-(3,4-dichlorophenyl)-D,L-alanyl]-L-valine N,N-dimethyl amide] | 145 to 160 °C
7 | CCCC[C@H](N)C(=O)NC(=O)[C@H](C)Nc1ccc(Cl)c(Cl)c1 [Example 51, N-[N-(3,4dichlorophenyl)-L-alanyl]-(S)-2-aminohexanamide] | 184 to 186 °C
8 | CCCC[C@H](N)C(=O)NC(=O)[C@H](C)Nc1ccc(Cl)c(Cl)c1 [Example 40, N-[N-(3,4-dichlorophenyl)-L-alanyl]-(S)-2-aminohexanamide] | 156 to 161 °C

The remaining lines, values ahead:

Row | melting point | SMILES
9 | 54 to 66 °C | COC(=O)[C@H](Cc1c[nH]c2ccccc12)NC(=O)C(C)Nc1ccc(Cl)c(Cl)c1 (mixture of isomers) [Example 16, N-[N-(3,4dichlorophenyl)-D,L-alanyl]-L-tryptophan methyl ester]
10 | 122 to 124.5 °C | COC(=O)[C@H](Cc1ccccc1)NC(=O)[C@H](C)Nc1ccc(Cl)c(Cl)c1 [Example 12, N-[N-(3,4-dichlorophenyl)-L-alanyl]-L-phenylalanine methyl ester]
11 | 163 to 165 °C | CCCC[C@H](NC(=O)[C@H](C)Nc1ccc(Cl)c(Cl)c1)C(=O)OC [Example 15, N-[N-(3,4dichlorophenyl)-L-alanyl]-(S)-2-aminohexanoic acid methyl ester]
12 | 55 to 60 °C | COC(=O)[C@H](Cc1c[nH]cn1)NC(=O)C(C)Nc1ccc(Cl)c(Cl)c1 (mixture of isomers) [Example 46, N-[N-(3,4-dichlorophenyl)-D,L-alanyl]-L-histidine methyl ester]
13 | 120 to 132 °C | COC(=O)[C@H](CC(C)C)NC(=O)[C@H](C)Nc1ccc(Cl)c(Cl)c1 [Example 11, N-[N-(3,4dichlorophenyl)-L-alanyl]-L-leucine methyl ester]
14 | 53.5 to 56 °C | COC(=O)[C@H](CC(=O)O)NC(=O)C(C)Nc1ccc(Cl)c(Cl)c1 (mixture of isomers) [Example 18, N-[N-(3,4dichlorophenyl)-D,L-alanyl]-L-aspartic acid methyl ester]
